Data set [1] concerns cutaneous T-cell lymphoma (CTCL). The conditions noted are these: two Phase II trials, 167 patients with CTCL; cited from earlier work.
Data set [2] relates to acetylated histone H3 in patient PBMCs. Put plainly: Histone acetylation in peripheral blood mononuclear cells. The data set is classed as in vivo, human.
The test system of data set [3] is patients with solid tumors. In words: Phase I toxicity evaluation and dose escalation. The conditions noted are these: four-hour infusion on days 1, 3 and 5 of a 21-day cycle.
Data set [4] concerns ST segment and T wave changes. In words: ECG evaluation, graded ST segment and T wave changes. The data set is classed as in vivo, human.
Another data set relates to solid tumors. In words: Efficacy evaluation, objective disease response by RECIST v.1. The format is in vivo, human.
The subject of data set [5] is peripheral T-cell lymphoma (PTCL). Particulars: two Phase II trials in PTCL; cited from earlier work.
Data set [6] relates to histone acetylation in PBMCs. Particulars: day 1, 8 and 15 schedule, four hours; cited from earlier work.
For data set [7], the system named is differentiated and anaplastic thyroid cancer cell lines. The conditions noted are these: in vitro, cited from earlier work.
The test system of data set [8] is RAI avidity of tumor tissue. Particulars: cited from earlier work.
Data set [9] can be described thus: Plasma pharmacokinetics by LC/MS.
Data set [10] deals with patients with solid tumors. The conditions noted are these: in vivo.
Data set [11] relates to radioactive iodine uptake in refractory thyroid cancer. In words: Radiolabeled sodium iodide. The data set is classed as in vivo, human. Particulars: six of eleven patients with thyroid cancer.
The mark [12] stands for this setting: 27 of 28 patients, days 1, 3, and 5 of cycle 1.

We go through two compounds from paper PMC3967244 (Clinical cancer research : an official journal of the …, 2013).

“Also recorded” adds a separate entry of the source. Read-outs that look alike come from different tables or passages of the source. Marks after values point to notes of the source that are not given here. Bounds are passed on as bounds.

`C/C=C1\NC(=O)[C@H]2CSSCC/C=C/[C@H](CC(=O)N[C@H](C(C)C)C(=O)N2)OC(=O)[C@H](C(C)C)NC1=O` [romidepsin, Romidepsin]: the “Overall response rate (ORR)” value in data set [1] is on record as 34–35%. The “Median increase in histone acetylation over baseline” value in [2] (4h time-point, 9.9 mg/m^2) is recorded as 3 fold. For the same compound, the “Increase in histone acetylation in PBMCs” value in data set [2] (4h time-point, dose of 3.3 mg/m^2 or higher) is given as at least 2 fold. Further, the “Accumulation in acetylation over the 5 days of treatment” value in data set [2] (days 1, 3, 5) is “no accumulation in acetylation”. Further, the “Patients with no measurable increase in AcH3” value in data set [2] (dose level 1 or 2) is on record as “Five of six”. In addition, the “Apparent threshold dose for histone acetylation in PBMCs” value in data set [2] (fold-increase in acetylation over pre-dose levels by cohort) is 3.3 mg/m^2. The “Dose identified as tolerable” value in [3] is 7 mg/m^2. The “Patients with Grade 2 ST and T wave changes” value in data set [4] (24-hour timepoint, dose level 5 (7 mg/m^2) and onward) is given as “over half of patients”. Further, the “Grade 1 ST and T wave changes” value in data set [4] (by dose level) was “noted from the first dose level onward”. Further, the “Grade 2 ST and T wave changes” value in data set [4] (dose levels above 5 mg/m^2) is “observed frequently”. Also, the RECIST-defined objective response entry in the data set with solid tumors (28 patients with solid tumors, all dose levels) is “No RECIST-defined objective responses; also recorded: no patient met criteria for RECIST-defined objective response”. In addition, in the data set with solid tumors (of 28 patients, minimum of six cycles (18 weeks)), the “Patients with stable disease” value is “nine”. In addition, the “Range of duration of stable disease, thyroid cancer” value in the data set on solid tumors (six patients with thyroid cancer) was 26–112 weeks. The ORR in [5] is on record as 25–38%. Also, the “Median increase in histone acetylation in PBMCs” value in data set [6] is on record as 3 fold. In addition, in data set [7] (nontoxic doses for 48 – 72 hours), the “Expression of thyroglobulin and NIS” value is on record as “induced expression”. Also, in data set [7], the Radioactive iodine uptake entry is reported as “increased radioactive iodine uptake”. In [8] (patients scanned following romidepsin), the “Patients with increase in RAI avidity” value was 2 of 16. For the same compound, the “Dose dependence of CMAX and AUCLAST” value in data set [9] (1 to 9 mg/m^2) was “linear pharmacokinetics”. In addition, in data set [9] (setting [12]), the “Inter-day patient variability (%CV) for AUCLAST” value is 2–59% and the “Inter-day patient variability (%CV) for CMAX” value was 5–68%. Also, the Clearance result in data set [9] (all dose levels) is listed as “rapid clearance”. In addition, in [9] (most patients, lower limit of quantitation 2 ng/ml), the “Plasma romidepsin concentration 14 hours after completing the infusion” value was “below the lower limit of quantitation”. For the same compound, the “Patients requiring dose reduction” value in data set [10] (human) was 7 of 9. Further, in [10] (human, 21 day), the Anorexia is 4 # pts (%), the “Grade 4 toxicities” value is on record as “none in cycle 1”, the Hypocalcemia is listed as 5 (18%) # pts (%) and the Nausea is 3 # pts (%). Besides, in [10] (human, 21 day), the “Recommended phase II dose (RP2D)” value was 7 mg/m^2 and the Vomiting is listed as 2 # pts (%). Also, in [10] (human, 21 days), the Vomiting is 9 (32%) # pts (%). For the same compound, in [10], the Febrile neutropenia result was “no episodes of febrile neutropenia”; the “Grade 3 nausea and vomiting at dose level 4” value is recorded as “not considered dose-limiting”. Moreover, in data set [11], the “RAI uptake on follow-up RAI scans” value is given as “did not detect meaningful increases; also recorded: None demonstrated significant uptake; also recorded: did not demonstrate a significant increase in RAI uptake”.
Turning to `O=C(CCCCCCC(=O)Nc1ccccc1)NO` [vorinostat], the “RAI in tumor tissue” value in [8] (one patient) is given as “increased”.
